In the assay the target is Serine/threonine-protein kinase PAK 2 (Homo sapiens) (UniProt Q13177). Description: PubChem AID 1224910. Particulars: Caliper in vitro kinase assay, dephosphorylated PAK2.
Sequence of Serine/threonine-protein kinase PAK 2 (Homo sapiens) (Q13177 whole entry, looked up): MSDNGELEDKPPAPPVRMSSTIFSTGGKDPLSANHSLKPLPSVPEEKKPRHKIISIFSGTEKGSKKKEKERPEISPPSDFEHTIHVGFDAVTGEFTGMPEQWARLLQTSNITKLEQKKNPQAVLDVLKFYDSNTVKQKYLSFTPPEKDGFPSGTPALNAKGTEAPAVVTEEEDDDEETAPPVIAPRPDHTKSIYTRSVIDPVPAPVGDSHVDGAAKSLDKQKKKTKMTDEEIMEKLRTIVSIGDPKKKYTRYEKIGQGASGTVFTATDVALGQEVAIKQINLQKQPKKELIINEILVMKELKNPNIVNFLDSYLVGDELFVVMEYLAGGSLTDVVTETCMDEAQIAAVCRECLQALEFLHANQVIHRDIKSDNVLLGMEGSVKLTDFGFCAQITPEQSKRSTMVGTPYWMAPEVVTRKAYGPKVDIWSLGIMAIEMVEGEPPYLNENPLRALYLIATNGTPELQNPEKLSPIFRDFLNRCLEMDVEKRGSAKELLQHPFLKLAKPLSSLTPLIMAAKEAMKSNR

Consider `CC(C)NC(=O)N1CC[C@H](N=C2Nc3cc(F)ccc3N(CC(F)F)c3ccc(Cl)cc32)C1`, for which the IC50 (usually the midpoint of a concentration-inhibition curve) is 270 nM.
